Source: ChEMBL document CHEMBL1157318, “Caryophyllene sesquiterpenoids from a fungicolous isolate of Pestalotiopsis disseminata” (2006)
Active and inactive are the calls of the source. No cut-off for these calls is given here.

How the values were obtained:
Bacillus subtilis = assay: Antimicrobial activity against Bacillus subtilis ATCC 6051 at 100 ug/disk by agar disk diffusion method; type: functional; details: for zone of inhibition at 100 µg/disc: read-out: IZ
Staphylococcus aureus = assay: Antimicrobial activity against Staphylococcus aureus ATCC 29213 at 100 ug/disk by agar disk diffusion method; type: functional; details: for zone of inhibition at 100 µg/disc: read-out: IZ
Escherichia coli = assay: Antimicrobial activity against sEscherichia coli ATCC 25922 at 100 ug/disk by agar disk diffusion method; type: functional, organism-based
Candida albicans = assay: Antimicrobial activity against Candida albicans ATCC 14053 at 100 ug/disk by agar disk diffusion method; type: functional, organism-based
Aspergillus flavus = assay: Antimicrobial activity against sAspergillus flavus NRRL 6541 at 200 ug/disk by agar disk diffusion method; type: functional, organism-based
Fusarium verticillioides = assay: Antimicrobial activity against Fusarium verticillioides NRRL 25457 at 200 ug/disk by agar disk diffusion method; type: functional, organism-based

| Compound | zone of inhibition at 100 µg/disc (Bacillus subtilis) [mm] | zone of inhibition at 100 µg/disc (Staphylococcus aureus) [mm] | Activity (Escherichia coli) | Activity (Candida albicans) | Activity (Aspergillus flavus) | Activity (Fusarium verticillioides) | Activity (Bacillus subtilis) | Activity (Staphylococcus aureus) |
| --- | --- | --- | --- | --- | --- | --- | --- | --- |
| CC1(C)C[C@@H]2/C(CO)=C\C=C/[C@@](C)(O)C[C@H](O)[C@]21O [6-HYDROXYPUNCTAPORONIN B] | 12 | 8 | inactive | inactive | inactive | inactive | – | – |
| CC1(C)C[C@H]2[C@@]1(O)[C@@H](O)C[C@]1(C)[C@H](O)C=C[C@]21CO | – | – | inactive | inactive | inactive | inactive | inactive | inactive |
| CC1(C)C[C@H]2[C@@]1(O)[C@@H](O)C[C@]1(C)C=C[C@@H](O)[C@]21CO | 12 | 8 | inactive | inactive | inactive | inactive | – | – |
